# From ChEMBL document CHEMBL5230110, “FabI (enoyl acyl carrier protein reductase) - A potential broad spectrum therapeutic target and its inhibitors” (Eur J Med Chem, 2020)
# Assays:
# Staphylococcus aureus [1] = assay: Antibacterial activity against Staphylococcus aureus assessed as inhibition of bacterial growth measured after 24 hrs by micro-dilution broth method; format: functional
# Escherichia coli [2] = assay: Antibacterial activity against Escherichia coli assessed as inhibition of bacterial growth measured after 24 hrs by micro-dilution broth method; format: functional
# Acinetobacter baumannii [3] = assay: Antibacterial activity against Acinetobacter baumannii W41979 assessed as inhibition of bacterial growth measured after 24 hrs by micro-dilution broth method; format: functional
# Klebsiella pneumoniae [4] = assay: Antibacterial activity against Klebsiella pneumoniae BAA-1705 assessed as inhibition of bacterial growth measured after 24 hrs by micro-dilution broth method; format: functional
# Enterobacter cloacae = assay: Antibacterial activity against Enterobacter cloacae assessed as inhibition of bacterial growth measured after 24 hrs by micro-dilution broth method; format: functional
# Pseudomonas aeruginosa = assay: Antibacterial activity against Pseudomonas aeruginosa assessed as bacterial growth inhibition measured after 24 hrs by micr-dilution broth method; format: functional
# Staphylococcus aureus [5] = assay: Antibacterial activity against Staphylococcus aureus assessed as inhibition of bacterial growth measured after 24 hrs; format: functional
# Moraxella catarrhalis = assay: Antibacterial activity against Moraxella catarrhalis assessed as inhibition in bacterial growth measured after 24 hrs by broth microdilution method; format: functional
# [6] = molecular target: T1, Enoyl-[acyl-carrier-protein] reductase [NADPH] FabI (Staphylococcus aureus, UniProt Q6GI75); assay: Inhibition of Staphylococcus aureus ATCC 29213 FabI in the presence of NADH using crotonyl CoA as substrate by measuring NADH consumption rate
# T1 sequence (Q6GI75 whole entry): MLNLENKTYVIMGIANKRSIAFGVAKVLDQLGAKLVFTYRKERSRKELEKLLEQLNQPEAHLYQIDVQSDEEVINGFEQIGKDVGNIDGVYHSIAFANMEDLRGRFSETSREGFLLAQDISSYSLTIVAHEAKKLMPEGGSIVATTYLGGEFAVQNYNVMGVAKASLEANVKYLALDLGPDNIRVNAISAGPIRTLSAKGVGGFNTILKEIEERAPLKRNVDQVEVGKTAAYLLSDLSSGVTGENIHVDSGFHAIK
# [7] = molecular target: T2, Enoyl-[acyl-carrier-protein] reductase [NADH] FabI (Escherichia coli K-12, UniProt P0AEK4); assay: Inhibition of Escherichia coli DH5alpha FabI in the presence of NADH using crotonyl CoA as substrate by measuring NADH consumption rate
# T2 sequence (P0AEK4 whole entry): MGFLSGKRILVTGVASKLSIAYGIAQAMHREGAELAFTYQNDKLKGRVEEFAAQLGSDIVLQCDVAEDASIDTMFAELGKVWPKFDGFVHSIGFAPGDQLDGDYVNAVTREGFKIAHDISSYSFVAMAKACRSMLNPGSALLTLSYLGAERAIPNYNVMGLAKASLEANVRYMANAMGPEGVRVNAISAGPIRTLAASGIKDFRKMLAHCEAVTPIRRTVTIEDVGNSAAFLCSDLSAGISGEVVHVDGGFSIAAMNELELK
# Staphylococcus aureus [8] = assay: Antibacterial activity against Methicillin-resistant Staphylococcus aureus N315 assessed as reduction in bacterial growth; format: functional
# [9] = molecular target: T2, Enoyl-[acyl-carrier-protein] reductase [NADH] FabI; assay: Inhibition of Escherichia coli FabI in the presence of NADH using crotonyl CoA as substrate by measuring NADH consumption rate
# Escherichia coli [10] = assay: Antibacterial activity against Escherichia coli assessed as bacterial growth inhibition at 50 uM measured after 24 hrs by 96-wellplate reader assay method; format: functional
# [11] = molecular target: T1, Enoyl-[acyl-carrier-protein] reductase [NADPH] FabI; assay: Inhibition of Staphylococcus aureus FabI in the presence of NADH using crotonyl CoA as substrate by measuring NADH consumption rate
# [12] = system: Mycobacterium tuberculosis; assay: Antimycobacterial activity against Mycobacterium tuberculosis H37Rv; format: functional
# [13] = Inhibition of Francisella tularensis FabI by addition of crotonyl-CoA as substrate preincubated for 10 mins followed by substrate addition in presence of NAD by spectrophotometer
# Staphylococcus aureus [14] = assay: Antibacterial activity against Staphylococcus aureus ATCC 29213 assessed as bacterial growth inhibition incubated for 24 hrs by broth dilution method; format: functional
# Staphylococcus aureus [15] = assay: Antibacterial activity against Methicillin-resistant Staphylococcus aureus ATCC 33592 assessed as bacterial growth inhibition measured after 24 hrs by broth dilution method; format: functional
# Staphylococcus aureus [16] = assay: Antibacterial activity against quinolone-resistant Staphylococcus aureus; format: functional
# Escherichia coli [17] = assay: Antibacterial activity against Escherichia coli BAA 2340 assessed as reduction in microbial growth inhibition; format: functional
# Klebsiella pneumoniae [18] = assay: Antibacterial activity against Klebsiella pneumoniae BAA-1705; format: functional
# Acinetobacter baumannii [19] = assay: Antibacterial activity against Acinetobacter baumannii W41979; format: functional
# [20] = system: Mycobacterium tuberculosis; assay: Antimycobacterial activity against Mycobacterium tuberculosis H37Rv after 14 days; format: functional; conditions: 336 h, time 14 day
structure (smiles),measurement,setting,value
Cc1cc(=O)n(C)c2c3c4c(cc12)c(C)cc(=O)n4CCO3,MIC,Staphylococcus aureus [1],0.06 µg/mL
same,MIC,Escherichia coli [2],> 32 µg/mL
same,MIC,Acinetobacter baumannii [3],16 µg/mL
same,MIC,Klebsiella pneumoniae [4],> 32 µg/mL
same,MIC,Enterobacter cloacae,> 32 µg/mL
same,MIC,Pseudomonas aeruginosa,> 32 µg/mL
Cc1ccc(C(=O)N2CCc3c(n(Cc4ccc(O)cc4)c4ccccc34)C2)c(O)c1,MIC,Staphylococcus aureus [5],1 µg/mL
same,MIC,Moraxella catarrhalis,4 µg/mL
Cc1cccc(Cl)c1Cc1c(Cl)n(Cc2cccc(Cl)c2)ccc1=O,IC50,[6],340 nM
same,IC50,[7],340 nM
same,MIC90,Staphylococcus aureus [8],0.5 µg/mL
CC(C)=CCc1c(O)cc(-c2cc3ccc(O)cc3o2)cc1O [MORACIN C],MIC,Staphylococcus aureus [5],32 µg/mL
O=c1ccn(Cc2cccc(Br)c2)cc1C(O)c1c(Cl)cccc1Cl (stereo not given),IC50,[9],430 nM
Cc1cc(=O)n(C)c2c3c4c(cc12)c(C)cc(=O)n4C(CN)CO3 (stereo not given),MIC,Staphylococcus aureus [1],0.05 µg/mL
same,MIC,Escherichia coli [2],0.5 µg/mL
same,MIC,Acinetobacter baumannii [3],2 µg/mL
same,MIC,Klebsiella pneumoniae [4],1 µg/mL
same,MIC,Enterobacter cloacae,0.5 µg/mL
same,MIC,Pseudomonas aeruginosa,> 16 µg/mL
Oc1ccccc1Oc1ccccc1,MIC,Escherichia coli [10],3.7 µg/mL
COc1ccc(-c2cn(Cc3ccc(C)cc3)cn2)cc1,IC50,[11],250 nM
same,IC50,[9],6440 nM
COc1nc2ccc(C)cc2cc1/C=N/NC(=O)c1ccc(-n2cccc2)cc1,MIC,[12],1.6 µg/mL
CC(c1ccc(Cl)c(Cl)c1)n1cnc2cc3c(cc21)CCC3 (stereo not given),IC50,[13],18 nM
same,MIC,Staphylococcus aureus [14],5.5 µg/mL
same,MIC,Staphylococcus aureus [15],6.3 µg/mL
CCCCCCCCCCCCCCCCc1cc(OC2OC(CO)C(O)C(O)C2O)cc(O)c1C(=O)Oc1cc(C)c(C(=O)O)c(O)c1 (stereo not given),IC50,[6],3200 nM
Cc1cc(Cl)ccc1Oc1cn(C)c(COc2ccccc2)cc1=O,IC50,[9],110 nM
Cc1ccc(Oc2cn(C)c(COc3ccccc3)cc2=O)c(C)c1,IC50,[11],80000 nM
same,MIC,Staphylococcus aureus [8],0.049 µg/mL
Cc1cc(Cl)ccc1Oc1coc(/C=C/c2ccc[nH]2)cc1=O,IC50,[9],140 nM
CC(C)CCCC/C=C\CCCCCCCC(=O)O,IC50,[11],16300 nM
CC(c1ccc(Cl)c(Cl)c1)n1cnc2cc3c(cc21)CCCC3 (stereo not given),IC50,[13],14 nM
same,MIC,Staphylococcus aureus [14],3.1 µg/mL
same,MIC,Staphylococcus aureus [15],3.1 µg/mL
O=C(c1ccc(Cl)cc1O)N1CCc2c(n(Cc3ccc(O)cc3)c3ccccc23)C1,MIC,Staphylococcus aureus [5],1 µg/mL
same,MIC,Moraxella catarrhalis,2 µg/mL
CN1C(=O)[C@@H](c2cc(Cl)c(O)c(Cl)c2)NC(=O)[C@@H]2NC(=O)[C@@H](c3cc(Cl)c(O)c(Cl)c3)NC(=O)[C@H](NC(=O)C(=O)c3cc(Cl)c(O)c(Cl)c3)Cc3cc4ccc(cc4[nH]3)-c3cc2cc(c3O)Oc2ccc(cc2)C[C@H]1C(=O)N[C@@H](C(=O)O)c1ccc(O)cc1,IC50,[6],500 nM
same,MIC,Staphylococcus aureus [16],2 µg/mL
CN1C(=O)[C@@H](c2cc(Cl)c(O)c(Cl)c2)NC(=O)[C@@H]2NC(=O)[C@@H](c3cc(Cl)c(O)c(Cl)c3)NC(=O)[C@H](NC(=O)C(=O)c3cc(Cl)c(O)c(Cl)c3)CC3C(=O)Nc4cc(ccc43)-c3cc2cc(c3O)Oc2ccc(cc2)C[C@H]1C(=O)N[C@@H](C(=O)O)c1ccc(O)cc1 (stereo not given in full) [COMPLESTATINS A],IC50,[6],600 nM
same,MIC,Staphylococcus aureus [16],4 µg/mL
Cc1c(CN(C)C(=O)/C=C/c2cnc3c(c2)CC(N)C(=O)N3)oc2ccccc12.Cl (stereo not given),MIC,Staphylococcus aureus [14],0.031 µg/mL
same,MIC,Escherichia coli [17],4 µg/mL
same,MIC,Klebsiella pneumoniae [18],8 µg/mL
same,MIC,Acinetobacter baumannii [19],4 µg/mL
CC1CC(=O)c2c(cc3c(-c4c(O)cc(O)c5c(O)c6c(cc45)OC(C)CC6=O)c(O)cc(O)c3c2O)O1 (stereo not given) [CEPHALOCHROMIN],IC50,[6],1900 nM
same,IC50,[7],1800 nM
Oc1cc(Cn2cc(C3CC3)nn2)ccc1Oc1ccccc1Cl,MIC,[20],0.156 µg/mL
Cc1ccc(Cn2cnc(-c3ccsc3)c2)cc1,IC50,[11],360 nM
same,IC50,[9],3920 nM
